Measured values from BindingDB's records for PubMed 35707152 (Max Planck Institute of Colloids and Interfaces, 2022).

Key:
[1] = Binding affinity to DC-SIGN ECD (66 to 404 residue) (unknown origin) expressed in Escherichia coli BL21 assessed as dissociation constant by STD reporter assay based NMR spectroscopy analysis
[2] = Binding affinity to N-terminal His-tagged DC-SIGN CRD (194 to 331 residues) (unknown origin) expressed in Escherichia coli BL21 assessed as dissociation constant by HSQC-NMR spectrum analysis

SMILES | Kd [1] [µM] | Kd [2] [µM]
O=C(O)c1cnc2ccccc2c1O | 2200 | 
CCOC(=O)c1cnc2ccccc2c1O | 200 | 200
CN(C)C(=O)c1c[nH]c2ccc(F)cc2c1=O | 2900 | 
CN(C)C(=O)c1c[nH]c2cc(N(C)C)ccc2c1=O | 400 | 500
CCOC(=O)c1c[nH]c2ccc(N(C)C)cc2c1=O | 300 | 
CCOC(=O)c1cc(=O)c2cccc(C(=O)OCC)c2[nH]1 | 600 | 
CN(C)C(=O)c1ccc2c(=O)c(S(=O)(=O)c3ccccc3)c[nH]c2c1 | 300 | 
CCOC(=O)c1cc(=O)c2cccc(F)c2[nH]1 | 500 | 400
CCOC(=O)c1c[nH]c2c(C(=O)OCC)cccc2c1=O | 100 | 
O=C(O)c1c[nH]c2ccc(S(=O)(=O)N3CCCCC3)cc2c1=O | 500 | 
O=c1c(S(=O)(=O)c2ccccc2)c[nH]c2cc(F)ccc12 | 1900 | 
CN(C)C(=O)c1c[nH]c2c(F)cccc2c1=O | 300 | 400
